Measured values reported in patent publication US9469650B2, “Melampomagnolide B derivatives” (BOARD OF TRUSTEES OF THE UNIVERSITY OF ARKANSAS, priority 2013, dated 2016).
Read-outs that look alike come from different tables or passages of the source.

What was measured:
IGROV1 = assay: panel of 60 human tumor cell lines, growth inhibition (Ovarian Cancer); conditions: IGROVI
SN12C = assay: panel of 60 human tumor cell lines, growth inhibition (Renal Cancer)
NCI-H226 = assay: panel of 60 human tumor cell lines, growth inhibition (Non-Small Cell Lung Cancer); conditions: NCI-H226
BT-549 = assay: panel of 60 human tumor cell lines, growth inhibition (Breast Cancer)
ACHN = assay: panel of 60 human tumor cell lines, growth inhibition (Renal Cancer)
MDA-MB-231/ATCC = assay: panel of 60 human tumor cell lines, growth inhibition (Breast Cancer); conditions: MDA-MB-231/ATCC
SK-MEL-2 = assay: panel of 60 human tumor cell lines, growth inhibition (Melanoma); conditions: SK-MEL-2
MCF7 = assay: panel of 60 human tumor cell lines, growth inhibition (Breast Cancer); conditions: MCF7
NCI-H460 = assay: panel of 60 human tumor cell lines, growth inhibition (Non-Small Cell Lung Cancer); conditions: NCI-H460
OVCAR-8 = assay: panel of 60 human tumor cell lines, growth inhibition (Ovarian Cancer); conditions: OVCAR-8
A549/ATCC = assay: panel of 60 human tumor cell lines, growth inhibition (Non-Small Cell Lung Cancer); conditions: A549/ATCC
SK-MEL-5 = assay: panel of 60 human tumor cell lines, growth inhibition (Melanoma); conditions: 8K-MEL-5
HS 578T = assay: panel of 60 human tumor cell lines, growth inhibition (Breast Cancer)
TK-10 = assay: panel of 60 human tumor cell lines, growth inhibition (Renal Cancer); conditions: TK-10
SF-268 = assay: panel of 60 human tumor cell lines, growth inhibition (CNS Cancer); conditions: SF-268
M14 = assay: panel of 60 human tumor cell lines, growth inhibition (Melanoma); conditions: M14
MDA-MB-435 = assay: as above; conditions: MDA-MB-435
HCT-15 = assay: panel of 60 human tumor cell lines, growth inhibition (Colon Cancer); conditions: HCT-15

## C=C1C(=O)O[C@H]2[C@H]1CC/C(COC(=O)NCCN1CCCCC1)=C\CC[C@@]1(C)O[C@@H]21 [JVM 2-13]
IGROV1
  GI50: 5.59 µM
  TGI: 22.9 µM
IGROV1; Log10 Concentration −4.0
  Percent Growth: −58%
IGROV1; Log10 Concentration −5.0
  Percent Growth: 33%
IGROV1; Log10 Concentration −6.0
  Percent Growth: 101%
IGROV1; Log10 Concentration −7.0
  Percent Growth: 106%
IGROV1; Log10 Concentration −8.0
  Percent Growth: 105%
SN12C
  GI50: 3.75 µM
  TGI: 16.2 µM
SN12C; Log10 Concentration −4.0
  Percent Growth: −71%
SN12C; Log10 Concentration −5.0
  Percent Growth: 19%
SN12C; Log10 Concentration −6.0
  Percent Growth: 92%
SN12C; Log10 Concentration −7.0
  Percent Growth: 94%
SN12C; Log10 Concentration −8.0
  Percent Growth: 97%
NCI-H226
  GI50: 10.5 µM
  TGI: 40.2 µM
NCI-H226; Log10 Concentration −4.0
  Percent Growth: −3%
NCI-H226; Log10 Concentration −5.0
  Percent Growth: 52%
NCI-H226; Log10 Concentration −6.0
  Percent Growth: 93%
NCI-H226; Log10 Concentration −7.0
  Percent Growth: 96%
NCI-H226; Log10 Concentration −8.0
  Percent Growth: 99%
BT-549
  TGI: 18.3 µM
BT-549; 81-549, Log10 Concentration −4.0
  Percent Growth: −96%
BT-549; 81-549, Log10 Concentration −5.0
  Percent Growth: 34%
BT-549; 81-549, Log10 Concentration −6.0
  Percent Growth: 89%
BT-549; 81-549, Log10 Concentration −7.0
  Percent Growth: 88%
BT-549; 81-549, Log10 Concentration −8.0
  Percent Growth: 83%
ACHN
  GI50: 2.76 µM
  TGI: 12.3 µM
ACHN; Log10 Concentration −4.0
  Percent Growth: −80%
ACHN; Log10 Concentration −5.0
  Percent Growth: 8%
ACHN; Log10 Concentration −6.0
  Percent Growth: 83%
ACHN; Log10 Concentration −7.0
  Percent Growth: 97%
ACHN; Log10 Concentration −8.0
  Percent Growth: 94%
MDA-MB-231/ATCC
  GI50: 5.69 µM
  TGI: 20.8 µM
MDA-MB-231/ATCC; Log10 Concentration −4.0
  Percent Growth: −79%
MDA-MB-231/ATCC; Log10 Concentration −5.0
  Percent Growth: 37%
MDA-MB-231/ATCC; Log10 Concentration −6.0
  Percent Growth: 91%
MDA-MB-231/ATCC; Log10 Concentration −7.0
  Percent Growth: 99%
MDA-MB-231/ATCC; Log10 Concentration −8.0
  Percent Growth: 107%
SK-MEL-2
  GI50: 17 µM
  TGI: 34.4 µM
SK-MEL-2; Log10 Concentration −4.0
  Percent Growth: −76%
SK-MEL-2; Log10 Concentration −5.0
  Percent Growth: 88%
SK-MEL-2; Log10 Concentration −6.0
  Percent Growth: 113%
SK-MEL-2; Log10 Concentration −7.0
  Percent Growth: 113%
SK-MEL-2; Log10 Concentration −8.0
  Percent Growth: 103%
MCF7
  GI50: 2.58 µM
  TGI: 11.4 µM
MCF7; Log10 Concentration −4.0
  Percent Growth: −64%
MCF7; Log10 Concentration −5.0
  Percent Growth: 4%
MCF7; Log10 Concentration −6.0
  Percent Growth: 82%
MCF7; Log10 Concentration −7.0
  Percent Growth: 91%
MCF7; Log10 Concentration −8.0
  Percent Growth: 87%
NCI-H460
  TGI: 36.5 µM
NCI-H460; Log10 Concentration −4.0
  Percent Growth: −66%
NCI-H460; Log10 Concentration −5.0
  Percent Growth: 85%
NCI-H460; Log10 Concentration −6.0
  Percent Growth: 100%
NCI-H460; Log10 Concentration −7.0
  Percent Growth: 100%
NCI-H460; Log10 Concentration −8.0
  Percent Growth: 102%
OVCAR-8
  GI50: 5.07 µM
  TGI: 20 µM
OVCAR-8; Log10 Concentration −4.0
  Percent Growth: −75%
OVCAR-8; Log10 Concentration −5.0
  Percent Growth: 32%
OVCAR-8; Log10 Concentration −6.0
  Percent Growth: 93%
OVCAR-8; Log10 Concentration −7.0
  Percent Growth: 97%
OVCAR-8; Log10 Concentration −8.0
  Percent Growth: 100%
A549/ATCC
  GI50: 18.1 µM
  TGI: 42.2 µM
A549/ATCC; Log10 Concentration −4.0
  Percent Growth: −51%
A549/ATCC; Log10 Concentration −5.0
  Percent Growth: 85%
A549/ATCC; Log10 Concentration −6.0
  Percent Growth: 94%
A549/ATCC; Log10 Concentration −7.0
  Percent Growth: 98%
A549/ATCC; Log10 Concentration −8.0
  Percent Growth: 95%
SK-MEL-5
  GI50: 15.8 µM
  TGI: 30.4 µM
SK-MEL-5; Log10 Concentration −4.0
  Percent Growth: −91%
SK-MEL-5; Log10 Concentration −5.0
  Percent Growth: 85%
SK-MEL-5; Log10 Concentration −6.0
  Percent Growth: 99%
SK-MEL-5; Log10 Concentration −7.0
  Percent Growth: 101%
SK-MEL-5; Log10 Concentration −8.0
  Percent Growth: 100%
HL-60(TB)
  GI50: 3.5 µM
  TGI: 11.3 µM
HL-60(TB); Log10 Concentration −4.0
  Percent Growth: −44%
HL-60(TB); Log10 Concentration −5.0
  Percent Growth: 2%
HL-60(TB); Log10 Concentration −6.0
  Percent Growth: 107%
HL-60(TB); Log10 Concentration −7.0
  Percent Growth: 106%
HL-60(TB); Log10 Concentration −8.0
  Percent Growth: 90%
HL-60(TB); read-out: LC50
  CC50: > 100 µM
HS 578T
  GI50: 18.4 µM
HS 578T; HS 57BT
  TGI: 66 µM
HS 578T; HS 57BT, Log10 Concentration −4.0
  Percent Growth: −16%
HS 578T; HS 57BT, Log10 Concentration −5.0
  Percent Growth: 74%
HS 578T; HS 57BT, Log10 Concentration −6.0
  Percent Growth: 89%
HS 578T; HS 57BT, Log10 Concentration −7.0
  Percent Growth: 87%
HS 578T; HS 57BT, Log10 Concentration −8.0
  Percent Growth: 92%
TK-10
  GI50: 2.88 µM
  TGI: 11.1 µM
TK-10; Log10 Concentration −4.0
  Percent Growth: −94%
TK-10; Log10 Concentration −5.0
  Percent Growth: 5%
TK-10; Log10 Concentration −6.0
  Percent Growth: 89%
TK-10; Log10 Concentration −7.0
  Percent Growth: 103%
TK-10; Log10 Concentration −8.0
  Percent Growth: 105%
SF-268
  GI50: 9.67 µM
  TGI: 24.4 µM
SF-268; Log10 Concentration −4.0
  Percent Growth: −78%
SF-268; Log10 Concentration −5.0
  Percent Growth: 49%
SF-268; Log10 Concentration −6.0
  Percent Growth: 96%
SF-268; Log10 Concentration −7.0
  Percent Growth: 104%
SF-268; Log10 Concentration −8.0
  Percent Growth: 97%
M14
  GI50: 6.78 µM
M14; Log10 Concentration −4.0
  Percent Growth: −82%
M14; Log10 Concentration −5.0
  Percent Growth: 42%
M14; Log10 Concentration −6.0
  Percent Growth: 91%
M14; Log10 Concentration −7.0
  Percent Growth: 96%
M14; Log10 Concentration −8.0
  Percent Growth: 91%
MDA-MB-435
  GI50: 4.13 µM
  TGI: 16.7 µM
MDA-MB-435; Log10 Concentration −4.0
  Percent Growth: −93%
MDA-MB-435; Log10 Concentration −5.0
  Percent Growth: 27%
MDA-MB-435; Log10 Concentration −6.0
  Percent Growth: 87%
MDA-MB-435; Log10 Concentration −7.0
  Percent Growth: 97%
MDA-MB-435; Log10 Concentration −8.0
  Percent Growth: 95%
HCT-15
  GI50: 3.08 µM
  TGI: 13.1 µM
HCT-15; Log10 Concentration −4.0
  Percent Growth: −75%
HCT-15; Log10 Concentration −5.0
  Percent Growth: 10%
HCT-15; Log10 Concentration −6.0
  Percent Growth: 88%
HCT-15; Log10 Concentration −7.0
  Percent Growth: 95%
HCT-15; Log10 Concentration −8.0
  Percent Growth: 91%
